Converted amounts (≈) assume the structure as drawn. Where two headings read alike, the source gives them in different places.
What was measured:
[1] = Baking of emission layer film at elevated temperature: state of film; assay type: physicochemical; details: for State of film after baking at elevated temp.: EML mixture per Table 5
From the text: The production of the corresponding OLED components is described below.
The emission layer is composed of at least one matrix material (host material) and an emitting dopant (emitter). In addition, it is possible to use mixtures of a plurality of matrix materials and co-dopants. Details given in such a form as TMM-A (92%):dopant (8%) mean here that the material TMM-A is present in the emission layer in a proportion by weight of 92% and dopant in a proportion by weight of 8%. The mixture for the emission layer is dissolved in toluene or optionally chlorobenzene. The typical solids content of such solutions is about 17 g/I when, as here, the layer thickness of 60 nm which is typical of a device is to be achieved by means of spin-coating. The layers are spun on in an inert gas atmosphere, argon in the present case, and baked for 10 minutes.

[2] = Solubility in organic solvents via HPTLC (after 24 hours and 7 days); assay type: physicochemical; details: for solubility at 24 h: 25 °C; for solubility at 24 h / solubility at 7 days: organic solvent or mixture, thermodynamic from solid; for solubility at 24 h / Solubility after 24 hours, Cyclohexylbenzene / Solubility after 24 hours, Mesitylene / Solubility after 24 hours, Tetralin / Solubility after 24 hours, Toluene: room temperature; for solubility at 7 days / Solubility after 7 days, Cyclohexylbenzene / Solubility after 7 days, Mesitylene / Solubility after 7 days, Tetralin / Solubility after 7 days, Toluene: 7 days storage at room temperature
Experimental: One way of processing the materials of the invention is from solution. In addition, it is a feature of materials of the invention that their […] stability is elevated, as apparent from the long-term solubility data in Table 1.
Method of Determining Solubility Via HPTLC
Sample preparation: The material is weighed out in two 25 mg portions (W1, W2), 0.5 ml of solvent is added, and the mixture is shaken at 60° C. for 60 minutes and then at 25° C. and 600 rpm for 24 h. When the solution is clear, more solid material is added until a saturated solution is formed. After being cooled to room temperature, the samples are filtered through a syringe filter (0.2 μm). The solutions are stored in glass vials at room temperature for 7 days, and the solubility is determined by HPTLC on days 1 and 7. For this purpose, the filtered solutions are diluted.
Calibration: Making up a standard solution: about 6 mg of substance are dissolved in 20 ml of 2-methyl-THF. If it is not possible to dissolve the material under these conditions, the concentration can be reduced. The stock solution is diluted for the calibration (standardization).
Chromatographic conditions (HPTLC): plate: HPTLC RP 18 F254, 10×20 cm eluent: methanol/2-methyl-THF 70/30 (V/V)
HPTLC measurement: The HPTLC plate is scanned by a TLC scanner, peaks are integrated and a calibration function is determined.

[3] = Ref. temp. 150, elevated temp. 180
[4] = Ref. temp. 160, elevated temp. 170
[5] = Ref. temp. 160, elevated temp. 180
[6] = cyclohexylbenzene, read-out: Solubility after 24 hours, Cyclohexylbenzene
[7] = mesitylene, read-out: Solubility after 24 hours, Mesitylene
[8] = tetralin, read-out: Solubility after 24 hours, Tetralin
[9] = toluene, read-out: Solubility after 24 hours, Toluene
[10] = cyclohexylbenzene, read-out: Solubility after 7 days, Cyclohexylbenzene
[11] = mesitylene, read-out: Solubility after 7 days, Mesitylene
[12] = tetralin, read-out: Solubility after 7 days, Tetralin
[13] = toluene, read-out: Solubility after 7 days, Toluene
[14] = Ref. temp. 150, elevated temp. 170

| State of film after baking at elevated temp. [1, 3] | solubility at 24 h [2, 6] [mg/mL] | solubility at 24 h [2, 7] [mg/mL] | solubility at 24 h [2, 8] [mg/mL] | solubility at 24 h [2, 9] [mg/mL] | solubility at 7 days [2, 10] [mg/mL] | solubility at 7 days [2, 11] [mg/mL] | solubility at 7 days [2, 12] [mg/mL] | solubility at 7 days [2, 13] [mg/mL] | Solubility after 24 hours, Cyclohexylbenzene ([2]; cyclohexylbenzene) [mg/mL] | Solubility after 7 days, Cyclohexylbenzene ([2]; cyclohexylbenzene) [mg/mL] | Solubility after 24 hours, Mesitylene ([2]; mesitylene) [mg/mL] | Solubility after 7 days, Mesitylene ([2]; mesitylene) [mg/mL] | Solubility after 24 hours, Tetralin ([2]; tetralin) [mg/mL] | Solubility after 7 days, Tetralin ([2]; tetralin) [mg/mL] | Solubility after 24 hours, Toluene ([2]; toluene) [mg/mL] | Solubility after 7 days, Toluene ([2]; toluene) [mg/mL] | Compound | other results |
| --- | --- | --- | --- | --- | --- | --- | --- | --- | --- | --- | --- | --- | --- | --- | --- | --- | --- | --- |
| clear |  |  |  |  |  |  |  |  | <1 | <1 | >50 | 50 (≈ 49.8 mM) | >50 | >50 | >50 | >50 | c1ccc(-c2cc(-c3ccccc3)cc(-c3cccc(-c4cccc(C5(c6cccc(-c7cccc(-c8cc(-c9ccccc9)cc(-c9ccccc9)c8)c7)c6)c6ccccc6-c6c(-c7ccccc7)cccc65)c4)c3)c2)cc1 [Compound M-0002] | State of film after baking at elevated temp. [1, 5]: clear; baking of the layer at higher temperature, cloudiness, compared with B-2 ([1]; versus B-2): can be baked at higher temperature without cloudiness |
|  |  |  |  |  |  |  |  |  | >50 | >50 | >50 | >50 | >50 | <50 | >50 | >50 | c1ccc(-c2cccc(-c3cc(-c4cccc(-c5ccccc5)c4)cc(C4(c5cc(-c6cccc(-c7ccccc7)c6)cc(-c6cccc(-c7ccccc7)c6)c5)c5ccccc5-c5c(-c6ccccc6)cccc54)c3)c2)cc1 [Compound M-0005] | State of film after baking at elevated temp. [1, 14]: clear; State of film after baking at elevated temp. [1, 4]: clear; solubility in cyclohexylbenzene compared with B-1 ([2]; cyclohexylbenzene, versus B-1): significantly better; long-term stability of the solution in mesitylene compared with B-1 ([2]; mesitylene, versus B-1): significantly better |
| clear |  |  |  |  |  |  |  |  | <50 | <50 | <50 | <50 | >50 | >50 | <50 | <50 | c1ccc(-c2cccc(-c3cc(-c4cccc(-c5ccccc5)c4)cc(C4(c5cc(-c6cccc(-c7ccccc7)c6)cc(-c6cccc(-c7ccccc7)c6)c5)c5ccccc5-c5c(-c6ccccc6-c6ccccc6)cccc54)c3)c2)cc1 [Compound M-0043] |  |
| clear | > 50 | > 50 | > 50 | > 50 | > 50 | > 50 | > 50 | > 50 |  |  |  |  |  |  |  |  | Cc1cc(C)c(-c2cccc3c2-c2ccccc2C3(c2cc(-c3cc(-c4ccc(C(C)(C)C)cc4)cc(-c4ccc(C(C)(C)C)cc4)c3)cc(-c3cc(-c4ccc(C(C)(C)C)cc4)cc(-c4ccc(C(C)(C)C)cc4)c3)c2)c2cc(-c3cc(-c4ccc(C(C)(C)C)cc4)cc(-c4ccc(C(C)(C)C)cc4)c3)cc(-c3cc(-c4ccc(C(C)(C)C)cc4)cc(-c4ccc(C(C)(C)C)cc4)c3)c2)c(C)c1 [Compound M-0086] |  |
| clear | < 50 | > 50 | > 50 | > 50 | < 50 | > 50 | > 50 | > 50 |  |  |  |  |  |  |  |  | c1ccc(-c2cc(-c3ccccc3)cc(-c3cccc(-c4cccc(C5(c6cccc(-c7cccc(-c8cc(-c9ccccc9)cc(-c9ccccc9)c8)c7)c6)c6ccccc6-c6c(-c7cccc(-c8ccccc8)c7)cccc65)c4)c3)c2)cc1 [Compound M-0162] |  |
|  |  |  |  |  |  |  |  |  | <40 | <40 | <30 | <30 | <40 | <40 | <30 | <30 | Cc1ccc2c(c1)-c1c(-c3cccc(-c4ccccc4)c3)cccc1C2(c1cccc(-c2cccc3c2-c2ccccc2C3(C)C)c1)c1cccc(-c2cccc3c2-c2ccccc2C3(C)C)c1 [Compound M-0172] | State of film after baking at elevated temp. [1, 14]: clear |
| clear |  |  |  |  |  |  |  |  | <30 | <25 | <20 | <20 | <30 | <25 | <20 | <20 | c1ccc(-c2cc(-c3ccccc3)cc(-c3cccc(-c4cccc(C5(c6cccc(-c7cccc(-c8cc(-c9ccccc9)cc(-c9ccccc9)c8)c7)c6)c6cc7c(cc6-c6c5ccc5c6-c6ccccc6C56c5ccccc5-c5ccccc56)OCO7)c4)c3)c2)cc1 [Compound M-0226] | solubility in toluene and mesitylene compared with B-2 ([2]; toluene and mesitylene, versus B-2): significantly better; long-term stability of the solutions compared with B-2 ([2]; versus B-2): significantly better |

Continued, compound first:

| Compound | State of film after baking at elevated temp. [1, 3] | solubility at 24 h [2, 6] [mg/mL] | solubility at 24 h [2, 7] [mg/mL] | solubility at 24 h [2, 8] [mg/mL] | solubility at 24 h [2, 9] [mg/mL] | solubility at 7 days [2, 10] [mg/mL] | solubility at 7 days [2, 11] [mg/mL] | solubility at 7 days [2, 12] [mg/mL] | solubility at 7 days [2, 13] [mg/mL] | Solubility after 24 hours, Cyclohexylbenzene ([2]; cyclohexylbenzene) [mg/mL] | Solubility after 7 days, Cyclohexylbenzene ([2]; cyclohexylbenzene) [mg/mL] | Solubility after 24 hours, Mesitylene ([2]; mesitylene) [mg/mL] | Solubility after 7 days, Mesitylene ([2]; mesitylene) [mg/mL] | Solubility after 24 hours, Tetralin ([2]; tetralin) [mg/mL] | Solubility after 7 days, Tetralin ([2]; tetralin) [mg/mL] | Solubility after 24 hours, Toluene ([2]; toluene) [mg/mL] | Solubility after 7 days, Toluene ([2]; toluene) [mg/mL] | other results |
| --- | --- | --- | --- | --- | --- | --- | --- | --- | --- | --- | --- | --- | --- | --- | --- | --- | --- | --- |
| c1ccc(-c2cccc(-c3cc(-c4cccc(-c5ccccc5)c4)cc(C4(c5cc(-c6cccc(-c7ccccc7)c6)cc(-c6cccc(-c7ccccc7)c6)c5)c5ccccc5-c5ccccc54)c3)c2)cc1 [Compound B-1, reference compound] | cloudy | < 20 | > 50 | > 50 | > 50 | < 20 | < 40 | > 50 | > 50 |  |  |  |  |  |  |  |  | State of film after baking at elevated temp. [1, 4]: slightly cloudy; State of film after baking at elevated temp. [1, 5]: cloudy |
| c1ccc(-c2cc(-c3ccccc3)cc(-c3cccc(-c4cccc(C5(c6cccc(-c7cccc(-c8cc(-c9ccccc9)cc(-c9ccccc9)c8)c7)c6)c6ccccc6-c6ccccc65)c4)c3)c2)cc1 [Compound B-2, reference compound] |  | > 50 | < 1 | > 50 | < 1 | < 1 | < 1 | < 20 | < 1 |  |  |  |  |  |  |  |  | State of film after baking at elevated temp. [1, 5]: slightly cloudy |
| c1ccc(-c2cccc(-c3cc(-c4cccc(-c5ccccc5)c4)cc(C4(c5cc(-c6cccc(-c7ccccc7)c6)cc(-c6cccc(-c7ccccc7)c6)c5)c5ccccc5-c5ccc(-c6ccccc6)cc54)c3)c2)cc1 [Compound B-3, reference compound] |  | > 50 | < 50 | < 50 | > 50 | > 50 | < 40 | < 50 | > 50 |  |  |  |  |  |  |  |  |  |
| c1ccc(-c2cccc(-c3cc(-c4ccccc4)cc(-c4cccc(C5(c6cccc(-c7cc(-c8ccccc8)cc(-c8cccc(-c9ccccc9)c8)c7)c6)c6ccccc6-c6ccccc65)c4)c3)c2)cc1 [Compound B-4, reference compound] | slightly cloudy |  |  |  |  |  |  |  |  |  |  |  |  |  |  |  |  |  |

Source: US12279521B2, “Materials for organic electroluminescent devices” (Merck Patent GmbH, priority 2019, dated 2025)
